The values below come from ChEMBL document CHEMBL1201862, “PubChem BioAssay data set” (2004).

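Cells were grown in 96-well plates and exposed to each compound for 48 hours at five concentrations; endpoints were interpolated linearly between bracketing concentrations, or set to the highest concentration if not reached. GI50 is the concentration that inhibits growth by half.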 The source made the active and inactive calls. Cut-off read from the data, not from the text of the source: active = GI50 up to about 1.1 µM and inactive = higher.

What all share (assay): DTP human tumour cell line panel, 48 h
Experiment [1] relates to EKVX.
Experiment [2] concerns HCT-15.
Experiment [3] deals with NCI-H23.
The test system of experiment [4] is HCT-116.
Experiment [5] concerns COLO 205.
Experiment [6] relates to SK-MEL-2.
In experiment [7] the test system is RXF 393.
Experiment [8] concerns LOX IMVI.
Experiment [9] relates to Hs-578T.
The subject of experiment [10] is SNB-75.
Experiment [11] deals with OVCAR-3.
The test system of experiment [12] is UACC-62.
Experiment [13] has as its system OVCAR-8.
Experiment [14] relates to PC-3.
In experiment [15] the test system is SF-539.
Experiment [16] relates to MDA-N.
For experiment [17], the system named is NCI-H522.
Experiment [18] relates to HOP-92.
The test system of experiment [19] is RPMI-8226.

Usually GI50 stands for the concentration at which growth is held to half of that of the control. Consider `OC1[C@@H]2[C@@H](O)[C@H](O)[C@@H](O)N2C[C@@H]1O` (stereo partly specified), for which the GI50 in [1] was > 100 µM (inactive); in [2], greater than 100 µM; in experiment [3], > 100 µM (inactive); in experiment [4], > 100 µM (inactive); in experiment [5] it was > 100 µM (inactive); in experiment [6], > 100 µM (inactive). The GI50 in experiment [7], in experiment [8], in experiment [9], in [10], in [11] and in experiment [12] was > 100 µM (inactive) each time. The GI50 in experiment [13], in experiment [14], in experiment [15], in experiment [16], in experiment [17] and in experiment [18] was > 100 µM (inactive) throughout.
As to `O=c1c2nc3ccccc3c(=O)n2ncn1-c1ccccc1Cl`, the GI50 was > 100 µM (inactive) in [1]; greater than 100 µM in experiment [2]; > 100 µM (inactive) in experiment [3]; > 100 µM (inactive) in experiment [4]; > 100 µM (inactive) in [5]; > 100 µM (inactive) in [6]. In addition, the GI50 in [8], in [9], in experiment [10], in experiment [11], in experiment [12] and in experiment [13] was > 100 µM (inactive) each time. The GI50 in experiment [19], in experiment [14], in [15], in experiment [16], in [17] and in experiment [18] was > 100 µM (inactive) each time.
As to `C=C(CCC(C(=O)O)C1CCC2(C)C3=C(CCC12C)C1(C)CCC(O)C(C)(C)C1CC3)C(C)C` (stereo unspecified), the GI50 was 27.5 µM (inactive) in experiment [1]; 21.8 µM in experiment [2]; 29.6 µM (inactive) in experiment [3]; 28.6 µM (inactive) in experiment [4]; > 100 µM (inactive) in [5]; 52 µM (inactive) in experiment [6]. In addition, the GI50 was 22 µM (inactive) in experiment [8]; 77.8 µM (inactive) in experiment [9]; 58.9 µM (inactive) in [10]; 45.6 µM (inactive) in experiment [11]; 34.9 µM (inactive) in experiment [12]; 19.1 µM (inactive) in experiment [13]. Also, the GI50 is 19.9 µM (inactive) in experiment [19]; 77.8 µM (inactive) in [14]; > 100 µM (inactive) in [15]; 86.7 µM (inactive) in [16]; 16.6 µM (inactive) in experiment [17]; 60.8 µM (inactive) in experiment [18].
As to `CCOC(=O)CCc1c(C)nc2c(C)c3c([nH]c4ccc(Cl)cc43)c(C)c2c1O`, the GI50 in [1] is 10.2 µM (inactive); in experiment [2], 12.2 µM; in [3], 19.2 µM (inactive); in experiment [4], 10.9 µM (inactive); in [5], 10.4 µM (inactive); in experiment [6], 1.45 µM (inactive). Besides, the GI50 is 2.96 µM (inactive) in experiment [7]; 10.9 µM (inactive) in [8]; 17.6 µM (inactive) in experiment [9]; 4.37 µM (inactive) in experiment [10]; 23.5 µM (inactive) in [13]; 4.19 µM (inactive) in experiment [14]. The GI50 in experiment [15] is 11.2 µM (inactive); in [16], 10.7 µM (inactive); in experiment [17], 6.81 µM (inactive); in [18] it was 15.8 µM (inactive).
On to `O=C1Oc2cc3c(c4cccc1c24)O[C@H](c1ccccc1)[C@@H](c1ccccc1)[C@@H]3c1ccc(Cl)cc1`, for which the GI50 in [1] is > 100 µM (inactive); in [2], greater than 100 µM; in experiment [3], 34 µM (inactive); in [4], 31.8 µM (inactive); in [5], > 100 µM (inactive); in [7], 17.4 µM (inactive). Besides, the GI50 in experiment [8] was 68.4 µM (inactive); in [9], 88.7 µM (inactive); in experiment [11], 36.8 µM (inactive); in experiment [12] it was 19.3 µM (inactive); in [13], 16.2 µM (inactive); in [19], 58.1 µM (inactive). For the same compound, the GI50 in experiment [14] was > 100 µM (inactive); in [15], 33.7 µM (inactive); in experiment [16], > 100 µM (inactive); in [17], 38 µM (inactive); in experiment [18], 28.8 µM (inactive).
In the case of `O=C1CSC(c2cccc(Oc3ccccc3)c2)N1c1cc(Cl)ccc1Cl` (stereo unspecified), the GI50 in [1] was 26.1 µM (inactive); in [2], 23.8 µM; in [3] it was 31.9 µM (inactive); in experiment [4], 17.3 µM (inactive); in [5], 36.7 µM (inactive); in experiment [6], 18.7 µM (inactive). In addition, the GI50 in experiment [7] is 18.5 µM (inactive); in [8], 20 µM (inactive); in experiment [9], 29.7 µM (inactive); in experiment [10], 26.4 µM (inactive); in [11], 22.1 µM (inactive); in experiment [12], 16 µM (inactive). In addition, the GI50 in experiment [13] is 23.7 µM (inactive); in experiment [14], 22.6 µM (inactive); in [15], 19.1 µM (inactive); in experiment [16], 17.6 µM (inactive); in experiment [17] it was 20.9 µM (inactive); in experiment [18], 16.4 µM (inactive).
As for `O=[N+]([O-])c1ccc(/N=N\c2c(O)c(S(=O)(=O)O)cc3cc(S(=O)(=O)O)ccc23)cc1`, the GI50 is > 100 µM (inactive) in experiment [1]; greater than 100 µM in experiment [2]; > 100 µM (inactive) in experiment [3]; > 100 µM (inactive) in experiment [4]; > 100 µM (inactive) in experiment [5]; > 100 µM (inactive) in experiment [6]. Further, the GI50 in [8] was > 100 µM (inactive); in experiment [9], > 100 µM (inactive); in [10] it was > 100 µM (inactive); in experiment [11], 27 µM (inactive); in experiment [12], > 100 µM (inactive); in experiment [13], > 100 µM (inactive). The GI50 in experiment [19], in [14], in [15], in experiment [16], in [17] and in experiment [18] was > 100 µM (inactive) throughout.
For `Cc1occc1/C(S)=N\c1ccc(Cl)c(C(=O)OCC2CC2)c1`, the GI50 in experiment [1] was 35 µM (inactive); in [2], 31.5 µM; in experiment [3], 58.6 µM (inactive); in experiment [4], 43.9 µM (inactive); in [5], 26.7 µM (inactive); in experiment [6], 47.4 µM (inactive). The GI50 was 29.2 µM (inactive) in experiment [8]; 46.9 µM (inactive) in experiment [9]; 23.9 µM (inactive) in experiment [10]; 52.2 µM (inactive) in [11]; 31.3 µM (inactive) in experiment [12]; 39.9 µM (inactive) in [13]. The GI50 is 23.1 µM (inactive) in experiment [19]; 30.4 µM (inactive) in experiment [14]; 51.6 µM (inactive) in [15]; 41.6 µM (inactive) in experiment [16]; 21.9 µM (inactive) in experiment [17]; 30.8 µM (inactive) in experiment [18].
